The source of these data is US20190328900A1, “ANTIBODY-DRUG CONJUGATES AND THERAPEUTIC METHODS USING THE SAME” (priority 2016, published 2019).

The subject of one assay is HIV strains/subtypes. The conditions noted are these: cited from earlier work.
Assay [1] has as its system pseudotyped virus (NL4-3 provirus with various HIV gp160 envelope clones). The assay is described as follows: Pseudotyped virus assay (PSV), luciferase reporter, U373 cells expressing human CD4 and CXCR4 or CCR5. Format: cell-based. An excerpt:
A pseudotyped virus assay (PSV) was used to assess the potency of various HIV entry inhibitors. Replication defective virus was produced by co-transfection of a plasmid containing an NL4-3 provirus [containing a mutation in the envelope open reading frame (ORF) and a luciferase reporter gene replacing the nef ORF] and a CMV-promoter expression plasmid containing an ORF for various HIV gp160 envelope clones. The harvested virus was stored at −80C in small aliquots and the titer of the virus measured to produce a robust signal for antiviral assays.
The PSV assay was performed by using U373 cells stably transformed to express human CD4, the primary receptor for HIV entry and either human CXCR4 or human CCR5 which are the co-receptors required for HIV entry as target cells for infection. Molecules of interest (including, but not limited to small molecule inhibitors of HIV, neutralizing antibodies of HIV, antibody-drug conjugate inhibitors of HIV, peptide inhibitors of HIV, and various controls) were diluted into tissue culture media and diluted via serial dilution to create a dose range of concentrations. This dose-range was applied to U373 cells and the pre-made pseudotyped virus added. The amount of luciferase signal produced after 3 days of culture was used to reflect the level of pseudotyped virus infection.
(Reporter assays use an easily measured gene product as a stand-in for the process of interest.)

As usually defined, the IC50 is the point on the concentration scale where inhibition reaches its midpoint. A low value points to greater potency.

Turning to “VRC01: broadly neutralizing anti-HIV antibody (IgG1) binding gp120, expressed in CHO cells; SEQ ID NO:9-13”, the HIV strains/subtypes neutralized in the assay on HIV strains/subtypes is 90%.

Take `O=C1Nc2ccc(Cl)cc2[C@@](C#CC2CC2)(C(F)(F)F)O1` [EFV, Efavirenz]: the IC50 in assay [1] (Human immunodeficiency virus 1, NL43, Table 14, first IC50 column (no further heading)) stood at 1.9 nM; in assay [1] (Human immunodeficiency virus 1, NL43, Table 14, second IC50 column (no further heading)), 1.53 nM; in assay [1] (Human immunodeficiency virus 1, NL43, Table 14, third IC50 column (no further heading)) it was 1.6 nM.
